Where a name gives a salt, the structure may show the parent alone.
What was measured:
[1] = hygroscopicity (moisture sorption/desorption); type: physicochemical; conditions: 25° C., ambient and high humidity conditions
Experimental: The data was obtained using a VTI Model MB-300W Moisture balance with relative humidity levels from 10% to 90% in increments of 10%. The maximum equilibration time at each humidity was set at 4 hours.
As used herein, the term “nonhygroscopic”, in reference to a compound, preferably denotes no measurable weight gain per weight of compound as measured above.
This was an unexpected result, because other salt forms of CA4P free acid are hygroscopic under similar conditions. Variable relative humidity-X-ray diffraction (“RH-XRD”) experiments have shown that the powder pattern remains unchanged on exposure to different humidities at 25° C.

[2] = physchem; conditions: 25 °C, thermodynamic from solid
[3] = solid-state chemical stability; type: physicochemical; conditions: ambient and accelerated conditions of temperature and humidity
[4] = system: murine L1210 lymphocytic leukemia cell line; conditions: NCI murine L1210; cited from earlier work
[5] = cited from earlier work
[6] = system: microtubulin assembly; conditions: cited from earlier work
[7] = system: murine P338 lymphocytic leukemia cell line; conditions: NCI murine P338; cited from earlier work

Structure (SMILES): COc1ccc(/C=C\c2cc(OC)c(OC)c(OC)c2)cc1OP(=O)(O)O [CA4P mono TRIS salt, CA4P mono-tromethamine salt]
- hygroscopicity [1]: practically nonhygroscopic
- solubility ([2]; pH 4.8, water): 3.37 mg/mL
- solubility ([2]; pH 8.2, aqueous buffer): 191 mg/mL
- chemical stability in the solid-state [3]: good chemical stability

Structure (SMILES): COc1ccc(/C=C\c2cc(OC)c(OC)c(OC)c2)cc1O [combretastatin A-4]
- activity against L1210 lymphocytic leukemia cell line [4]: significantly active
- solubility in water [5]: essentially insoluble in water
- inhibition of microtubulin assembly [6]: potent inhibitor
- activity against P338 lymphocytic leukemia cell line [7]: significantly active
